Publication PMC10221222 (Pharmaceutics, 2023)
Like-named read-outs stand apart in the source and are kept apart here.

Experiments:
[1] = system: CH1/PA-1 (ovarian teratocarcinoma); details: MTT, 96 h exposure; cited from earlier work
[2] = system: SW480 (colon carcinoma); details: MTT, 96 h exposure; cited from earlier work
[3] = system: A549 (non-small cell lung cancer); details: MTT, 96 h exposure; cited from earlier work
[4] = Reduction by ascorbic acid followed by time-dependent 1H NMR; assay type: physicochemical; details: for Reduction Half-Time: 1 mM Pt, 25 eq. ascorbic acid, phosphate-buffered D2O pD 7.4, ambient temperature; for percentage of the reduced species when measurement was stopped before the half-time: 1:25 ascorbic acid, pD 7.4, ambient temperature, at the time given as bound of the half-time
Procedure: The reduction of platinum(IV) complexes and representatives of each series of conjugates by ascorbic acid was observed by ^1H NMR spectroscopic measurements at ambient temperature. An amount of 1 mM solutions of platinum(IV) complexes 1–3, 5–7 as well as of the conjugates C2, C11, C13, C22–C24 referred to their corresponding platinum units were prepared in a D2O phosphate-buffered solution (50 mM) at physiological pD = 7.4. Afterwards, ascorbic acid was added as a reducing agent (25 mM, 25 eq.) and ^1H NMR measurements were performed for several days. The reduction behavior for substances 1–3, 5, 6, C2, C11, C13, C22, C23 was monitored by the resulting decrease in intensity of the acetato signal (release of acetic acid). The percentage of reduced species was determined by using the integration ratios of these two signals. Contrarily, ratios of signals of the succinato ligands and free succinic acid were consulted for the reduction determination of substances 7 and C24. However, the reduction half-time of C24 could not be obtained due to the superimposition of the succinato peaks with other signals.
Moreover, the reduction behavior of conjugates in comparison to unattached platinum(IV) complexes was investigated by time-dependent ^1H NMR spectroscopy (Table 3). In general, the reduction behavior is influenced by the nature of the ligands coordinated to the platinum(IV) core. […] In accordance with previous studies, the cisplatin core of substance 1 led to a faster reduction with a reduction half-time of 6 h, whereas only 6% of the carboplatin(IV) analog 2 was reduced after 95 h. Similar to complex 1, the two chlorido ligands of compound 6 allow fast electron transfer, thereby supporting rapid reduction. […] A potential connection between bulkiness and facilitated reduction has been reported in the literature. As further expected, the influence between G2 and G4 dendrimers on the reduction behavior is marginal due to the huge distance to the platinum(IV) core. Therefore, no significant difference in the rate of reduction between conjugates of G2 and G4 dendrimers was observed based on the measurements of C2 and C13, respectively.

[5] = system: A549 (non-small cell lung cancer); experiment: MTT cytotoxicity assay, 96 h exposure, A549 cells; assay type: cell-based, human; details: pertains to dendrimer concentration for C1–C24
Procedure: (§1) Culture of and 96 h cytotoxicity tests in the human cell lines CH1/PA-1 (ovarian teratocarcinoma), SW480 (colon carcinoma) and A549 (non-small cell lung cancer) were performed as described previously, with the exception that test compounds were dissolved either in sterile water or supplemented MEM and then serially diluted in the latter medium.
(§2) Three human cancer cell lines differing in their chemosensitivity were employed for testing the cytotoxic potencies of all compounds: the broadly sensitive ovarian teratocarcinoma cell line CH1/PA-1, the multidrug-resistant non-small cell lung cancer cell line A549 and the colon cancer cell line SW480 with mostly intermediate sensitivity. This pattern of sensitivity also reflects throughout the data compiled here.

[6] = system: CH1/PA-1 (ovarian teratocarcinoma); experiment: MTT cytotoxicity assay, 96 h exposure, CH1/PA-1 cells; assay type: cell-based, human; details: pertains to dendrimer concentration for C1–C24
Procedure: as §1
as §2, with “sensitivity.” for “sensitivity. This pattern of sensitivity also reflects throughout the data compiled here.”

[7] = system: SW480 (colon carcinoma); experiment: MTT cytotoxicity assay, 96 h exposure, SW480 cells; assay type: cell-based, human; details: pertains to dendrimer concentration for C1–C24
Procedure: as §1, §2

[8] = system: CT26 murine colon cancer allograft; experiment: Efficacy study in CT26-allograft-bearing mice (tumor volume, survival); assay type: in vivo, BALB/c mice; details: vs solvent control; i.v. twice a week for two weeks; C12 7.5 mg/kg, cisplatin 3 mg/kg
Procedure: All drugs were dissolved in 0.9% NaCl.
The promising effects further translate into a prolongation trend of animal survival (Figure 4). While in the cisplatin group, weight loss was critical in addition to tumor necrosis, even smaller tumors tended to get necrotic and broke up in C12-treated animals, making the sacrifice of the animals necessary due to ethical guidelines.

[9] = parameters: method as in PMID 10222430; details: cited from earlier work
[10] = Tumor, organ and blood distribution of platinum by ICP-MS; assay type: in vivo, male CT26-allograft-bearing BALB/c mice; details: 24 h after second application
Procedure: Blood was taken after 30 min and 24 h after the first application from the facial vein and terminally by cardiac puncture 24 h after the second application. To separate serum from blood pellet, blood was twice spun down at 900 g for 10 min at 4 °C. The platinum amount of all samples was measured by ICP-MS.
Renal excretion and glomerular filtration are typical for ≤G4 PAMAM dendrimers and in general for nanoparticles smaller than 5 nm. […] Additionally, the influence of the molecular weight of nanoparticles on the biodistribution behavior was reported previously. […] On the contrary, the efficient kidney accumulation of this dendrimer preparation might also be considered in kidney-specific drug delivery approaches.

[11] = system: CT26 murine colon cancer cells; experiment: MTT assay in murine cell line CT26; assay type: cell-based; details: 72 h exposure
Procedure: The MTT assay in the murine cell line CT26 was performed as described in [25].
cells, obtained by MTT assays with 72 h exposure time.

Row | Compound | IC50 [1] [µM] | IC50 [2] [µM] | IC50 [3] [µM] | Reduction Half-Time [4] [h] | percentage of the reduced species when measurement was stopped before the half-time [4] [%] | IC50 [5] [µM] | IC50 [6] [µM] | IC50 [7] [µM] | maximum tumor growth inhibition effect [8] [%] | maximum tolerated dosage [9] [mg/kg] | platinum content of blood cells ([10]; 30 min and 24 h after first) | platinum levels in lung tissue [10] | IC50 [11] [µM]
1 | O=C1[O][Pt]2([NH][C@@H]3CCCC[C@H]3[NH]2)[O]C1=O [Oxaliplatin, reference compound] | 0.18 ± 0.01 | 0.29 ± 0.05 | 0.98 ± 0.21 | – | – | – | – | – | – | – | – | – | –
2 | (OC-6-44)-Acetato(3-carboxypropanoato)(1R,2R-cyclohexane-1,2-diamine)oxalatoplatinum(IV) [Complex 3] | 4.1 ± 0.6 | 22 ± 8 | 70 ± 29 | > 165 | 14 | – | – | – | – | – | – | – | –
3 | (OC-6-44)-Acetaodiammine(3-carboxypropanoato)(cyclobutane-1,1-dicarboxylato)platinum(IV) [Complex 2] | 16 ± 6 | > 200 | > 200 | > 95 | 6 | – | – | – | – | – | – | – | –
4 | (OC-6-54)-Acetato(3-carboxypropanoato)(^13C2)oxalato(1R,2R,4R/1S,2S,4S)-(4-trifluoromethyl-cyclohexane-1,2-diamine)platinum(IV) [Complex 5] | – | – | – | > 93 | ~23 | 54 ± 6 | 6 ± 0.9 | 33 ± 5 | – | – | – | – | –
5 | N.N.[Cl][Pt][Cl] [Cisplatin] | 0.073 ± 0.001 | 2.3 ± 0.2 | 3.8 ± 1 | – | – | – | – | – | 47.6 | 3 | blood cells contained enhanced platinum contents | higher levels were detected in lung tissue | 1.85
6 | (OC-6-44)-Acetato(3-carboxypropanoato)dichlorido(1R,2R-cyclohexane-1,2-diamine)platinum(IV) [Complex 6] | – | – | – | ~27 | – | 2.8 ± 0.1 | 0.44 ± 0.1 | 0.85 ± 0.14 | – | – | – | – | –
7 | N.N.O=C([O-])C1(C(=O)[O-])CCC1.[Pt+2] [Carboplatin, reference compound] | 0.79 ± 0.11 | 42 ± 10 | 38 ± 3 | – | – | – | – | – | – | – | – | – | –
8 | (OC-6-44)-Acetatodiammine(3-carboxypropanoato)dichloridoplatinum(IV) [Complex 1] | 1.2 ± 0.5 | 47 ± 11 | 99 ± 17 | ~6 | – | – | – | – | – | – | – | – | –
9 | (OC-6-44)-(3-carboxypropanoato)(1R,2R-cyclohexanem-1,2-diamine)hydroxidooxalatoplatinum(IV) [Complex 7] | – | – | – | ~29 | – | 66 ± 2 | 5.2 ± 0.8 | 20 ± 3 | – | – | – | – | –
